The values that follow come from the RepoRT retention time repository.

A short description of this series: RP, Waters CORTECS UPLC C18, 100 × 2.1 mm, 1.6 µm, 40 °C, 0.4 mL/min, estimated dead time 0.55 min; A: water + 0.1% formic acid, pH 3; B: acetonitrile + 0.1% formic acid, pH 3; gradient (min/%B) 0/5 1.12/5 6.41/99.5 10.01/99.5. To be noted: stereoisomer not certain.
Take `CNC(=O)ON=C(CSC)C(C)(C)C` [Thiofanox]: the LC retention time was 4.76 min.

As for `CC=C(C)C(=O)OC(CC(=O)[O-])C[N+](C)(C)C` [Tigloyl-L-carnitine], the LC retention time was 2.43 min.

Turning to `CC=C(C)C(=O)NCC(=O)O` [Tiglyl Glycine], the LC retention time was 2.22 min.

In the case of `COP(=S)(OC)Oc1c(Cl)cc(C)cc1Cl` [Tolclosof methyl], the LC retention time was 5.72 min.

For the compound `CCON=C(CC)C1=C(O)CC(c2c(C)cc(C)cc2C)CC1=O` (stereo not given) [Tralkoxidym], the LC retention time was 6.22 min.

In the case of `CC(C)(C)C(=O)C(Oc1ccc(Cl)cc1)n1cncn1` (stereo not given) [Triadimefon], the LC retention time was 4.95 min.

For the compound `CC(C)(C)C(O)C(Oc1ccc(Cl)cc1)n1cncn1` (stereo not given) [Triadimenol], the LC retention time is 4.74 min.

For `COc1nc(C)nc(NC(=O)NS(=O)(=O)c2ccccc2OCCCl)n1` [Triasulfuron], the LC retention time is 4.09 min.

As for `COP(=O)(OC)C(O)C(Cl)(Cl)Cl` (stereo not given) [Trichlorfon], the LC retention time is 3 min.

As to `Cc1cccc2sc3nncn3c12` [Tricyclazol], the LC retention time is 3.38 min.

On to `CCNc1nc(Cl)nc(N(CC)CC)n1` [Trietazin], for which the LC retention time was 5.23 min.

For `CON=C(C(=O)OC)c1ccccc1CON=C(C)c1cccc(C(F)(F)F)c1` [Trifloxystrobin], the LC retention time is 5.81 min.

In the case of `CCCOCC(=Nc1ccc(Cl)cc1C(F)(F)F)n1ccnc1` [Triflumizol], the LC retention time was 5.16 min.

Regarding `O=C(NC(=O)c1ccccc1Cl)Nc1ccc(OC(F)(F)F)cc1` [Triflumuron], the LC retention time is 5.42 min.

With `CC1(C)CCC(=Cc2ccc(Cl)cc2)C1(O)Cn1cncn1` (stereo not given) [Triticonazole], the LC retention time is 4.76 min.

Regarding `O=c1[nH]c(=O)c2[nH]c(=O)[nH]c2[nH]1` [URATE], the LC retention time was 0.727 min.

Regarding `CC(CCC(=O)O)C1CCC2C3C(O)CC4CC(O)CCC4(C)C3CC(O)C12C` (stereo not given) [Ursocholic acid (7-epicholic acid)], the LC retention time was 4.34 min.

In the case of `CCCCC(=O)OC(CC(=O)[O-])C[N+](C)(C)C` [Valeryl-L-carnitine], the LC retention time is 2.66 min.

Take `CNC(=O)C(C)SCCSP(=O)(OC)OC` (stereo not given) [Vamidothion]: the LC retention time was 3.02 min.

Consider `O=c1[nH]c(=O)c2[nH]cnc2[nH]1` [XANTHINE], for which the LC retention time is 0.727 min.

`O=c1[nH]c(=O)c2ncn(C3OC(CO)C(O)C3O)c2[nH]1` (stereo not given) [XANTHOSINE]: the LC retention time was 0.752 min.

Regarding `O=C(O)c1cc(=O)c2cccc(O)c2[nH]1` [XANTHURENATE], the LC retention time was 2.15 min.

With `CCCCCCC=CC#CCCCCCCCC(=O)O` [Ximeninic Acid], the LC retention time is 6.4 min.

Take `CCC(C)(NC(=O)c1cc(Cl)c(C)c(Cl)c1)C(=O)CCl` (stereo not given) [Zoxamide]: the LC retention time was 5.55 min.

Take `CCCCCCCCCC(O)CC(=O)OC(CC(=O)[O-])C[N+](C)(C)C` [[(3R)-3-Hydroxydodecanoyl]-L-carnitine]: the LC retention time was 4.2 min.

With `CCCCCCCCCCCCCC(O)CC(=O)OC(CC(=O)[O-])C[N+](C)(C)C` [[(3R)-3-Hydroxyhexadecanoyl]-L-carnitine], the LC retention time is 5.1 min.

In the case of `CCCCCC=CCC=CCCCCCCCC(=O)OC(CC(=O)[O-])C[N+](C)(C)C` [cis,cis-9,12-Octadecadienoyl-L-carnitine], the LC retention time was 5.38 min.

`CCCCCCCCCC=CC(=O)OC(CC(=O)[O-])C[N+](C)(C)C` [trans-2-Dodecenoyl-L-carnitine]: the LC retention time was 4.5 min.

On to `CCCCCC=CC(=O)OC(CC(=O)[O-])C[N+](C)(C)C` [trans-2-Octenoyl-L-carnitine], for which the LC retention time is 3.56 min.

In the case of `CCCCCCCCCCCC=CC(=O)OC(CC(=O)[O-])C[N+](C)(C)C` [trans-2-Tetradecenoyl-L-carnitine], the LC retention time is 4.96 min.
